Results as given in patent US4518779A, “1,2,3,4-Tetrahydro-1-aminomethyl-4-phenyl isoquinolines” (Pennwalt Corporation, priority 1982, dated 1985).
Structures can show the parent of a compound that is named as a salt. Where two headings read alike, the source gives them in different places.

Target: [^3 H]-mepyramine binding in brain homogenates (Rattus norvegicus, UniProt P31390)
Experiment: biochemical
Conditions: read-out: (^3 H)mepyramine rating: molar concentration required to inhibit by 50% the binding of [^3 H]mepyramine
[1] = in vitro, brain homogenates, smaller numbers indicate greater potency

[^3 H]-mepyramine binding in brain homogenates, sequence (P31390 whole entry): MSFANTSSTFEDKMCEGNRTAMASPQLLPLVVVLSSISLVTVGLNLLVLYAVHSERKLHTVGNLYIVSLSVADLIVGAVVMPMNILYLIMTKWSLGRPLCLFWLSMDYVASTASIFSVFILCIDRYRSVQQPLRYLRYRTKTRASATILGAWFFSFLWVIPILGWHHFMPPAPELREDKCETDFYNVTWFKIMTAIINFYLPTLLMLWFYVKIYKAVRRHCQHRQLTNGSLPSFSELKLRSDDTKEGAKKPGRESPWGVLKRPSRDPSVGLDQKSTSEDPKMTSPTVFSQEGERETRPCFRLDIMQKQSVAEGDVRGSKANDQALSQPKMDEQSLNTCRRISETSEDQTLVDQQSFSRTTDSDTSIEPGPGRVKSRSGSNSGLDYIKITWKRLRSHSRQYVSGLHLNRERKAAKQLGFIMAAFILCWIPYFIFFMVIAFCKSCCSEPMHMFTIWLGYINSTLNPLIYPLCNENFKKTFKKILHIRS

SMILES | IC50 [nM] | IC50 [1] [nM]
CNC[C@@H]1NC[C@H](c2ccccc2)c2ccccc21 (relative stereo) [Example 1 cis form, cis-1,2,3,4-tetrahydro-1-methylaminomethyl-4-phenylisoquinoline dihydrochloride] | 3500 | –
CCNC[C@@H]1NC[C@H](c2ccccc2)c2ccccc21 (relative stereo) [Example 4, 1,2,3,4-tetrahydro-1-(ethylamino)methyl-4-phenylisoquinoline dihydrochloride] | – | > 1000
CN(C)C[C@@H]1NC[C@H](c2ccccc2)c2ccccc21 (relative stereo) [Example 2, 1,2,3,4-tetrahydro-1-dimethylaminomethyl-4-phenylisoquinoline dihydrochloride] | – | 2800
CNC[C@@H]1NC[C@@H](c2ccccc2)c2ccccc21 (relative stereo) [Example 1 trans form, trans-1,2,3,4-tetrahydro-1-methylaminomethyl-4-phenylisoquinoline dihydrochloride] | 78 | –
CN(C)C[C@H]1c2ccccc2[C@@H](c2ccccc2)CN1C (relative stereo) [Example 3, 1,2,3,4-tetrahydro-2-methyl-1-dimethylaminomethyl-4-phenylisoquinoline dihydrochloride] | – | 1800
